Literature values in US20060008512A1, “Composition and methods for improved animal performance” (priority 2004, published 2006).
Like-named read-outs stand apart in the source and are kept apart here.

Experiments:
broiler chickens = settings: finishing-phase T3 administration alone; cited from earlier work
[1] = test system: growing cockerel and pullet chickens; settings: 10 mg/kg dietary thyroid hormone; cited from earlier work
pigs [2] = settings: 5 or 8 mg iodide/kg feed for 3 months; cited from earlier work
[3] = test system: young male Nile tilapia fish; settings: 100 or 150 mg thiouracil/kg diet for 40 days; by 98 days; cited from earlier work
neonatal male rats = settings: fed from birth to 24 days of age, cited from earlier work
cockerels = settings: fed from 1 day of age; by the 14th week; cited from earlier work
laying hens = settings: 20 to 40 mg corticosterone/kg diet; cited from earlier work
White Leghorn hens = settings: single i.m. injection releasing 60 mcg/kg body weight per day for 30 days, cited from earlier work
broiler breeder hen = settings: 50 mg/kg feed; days 11 and 12; cited from earlier work
[4] = test system: female Sprague-Dawley rats; settings: fifteen days, cited from earlier work; for Concentration of reverse T3: control 71.7; for Concentration of T3: control 670
pigs [5] = settings: 1,000 mg betaine/kg diet; cited from earlier work
male rats [6] = settings: treated from birth to day 25, cited from earlier work
suckling rat pups = settings: 0.1% solution in mother's drinking water, birth to 24 days, cited from earlier work
[7] = test system: male Peterson broiler breeder chicks; settings: 0.1% dietary, cited from earlier work
dogs = settings: approximately 5 mg biotin/10 kg body weight for 3 to 5 weeks; cited from earlier work
[8] = serum adjusted to 10 mM sodium salicylate; cited from earlier work
male rats [9] = settings: 200 mg/kg body weight i.v.; blood 30-240 minutes later; cited from earlier work
humans = settings: daily doses of 100 to 200 mg iodide (from potassium iodide) per person; cited from earlier work
[10] = test system: porcine thyroid follicles; settings: cited from earlier work
[11] = test system: isolated porcine thyroid follicles; settings: 10 microM of iodide, comparison value; cited from earlier work

In the case of `N[C@@H](Cc1cc(I)c(Oc2ccc(O)c(I)c2)c(I)c1)C(=O)O` [T3, 3,5,3′-triiodo-L-thyronine], the “Reduction in body fat” value (broiler chickens) is given as 17-25% and the “Reduction in body weight gain compared to controls” value [1] is given as 55.24%.
For `[I-].[K+]` [potassium iodide], the “Increase of iodine content in adipose tissue” value (pigs [2]) is listed as 213%, the “Increase of iodine content in fresh muscle” value (pigs [2]) is listed as 45% and the “Increase of iodine content in heart” value (pigs [2]) is listed as 124%. The “Increase of iodine content in kidneys” value (pigs [2]) was 127% and the “Increase of iodine content in liver” value (pigs [2]) was 207%.
In the case of `O=c1cc[nH]c(=S)[nH]1` [thiouracil], the “Testis weight, gonadosomatic index, Sertoli, germ and Leydig cell numbers higher than control” value [3] is listed as “approximately 100%”, the “Increase in testis size” value (neonatal male rats; at 100 days) is listed as 68% and the “Time for serum T4 and T3 to return to control levels after removal” value (neonatal male rats) is listed as no more than 15 days. For the same compound, the “Weights of testes relative to controls” value (cockerels) was “about 10 times”.
For `C[C@]12C[C@H](O)[C@H]3[C@@H](CCC4=CC(=O)CC[C@@]43C)[C@@H]1CC[C@@H]2C(=O)CO` [corticosterone], the “Laying hens with cessation of egg production” value (laying hens) is listed as 98%.
For `CCNC(=O)[C@@H]1CCCN1C(=O)[C@H](CCCNC(=N)N)NC(=O)[C@H](CC(C)C)NC(=O)[C@@H](CC(C)C)NC(=O)[C@H](Cc1ccc(O)cc1)NC(=O)[C@H](CO)NC(=O)[C@H](Cc1c[nH]c2ccccc12)NC(=O)[C@H](Cc1c[nH]cn1)NC(=O)[C@@H]1CCC(=O)N1` [leuprolide acetate], the Body weight (White Leghorn hens) is given as “no body weight loss” and the Egg production (White Leghorn hens; second week) is given as 3.5%.
In the case of Nicarbazin, the Hatchability (broiler breeder hen) is given as 31%.
In the case of `Cc1cc2c(C(C)C)c(O)c(O)c(C=O)c2c(O)c1-c1c(C)cc2c(C(C)C)c(O)c(O)c(C=O)c2c1O` [gossypol acetic acid], the “Concentration of reverse T3” value ([4]; 5 mg/kg/day) is listed as 0.0372 ng/mL, the “Concentration of T3” value ([4]; 5 mg/kg/day) is listed as 0.43 ng/mL and the “Concentration of reverse T3” value ([4]; 10 mg/kg/day) is listed as 0.0242 ng/mL. The “Concentration of T3” value ([4]; 10 mg/kg/day) was 0.359 ng/mL.
For `C[N+](C)(C)CC(=O)O` [betaine], the “Decrease in feed conversion ratio” value (pigs [5]) is given as 7.93% and the “Increase in average daily gain” value (pigs [5]) is given as 13.20%.
For `CCCc1cc(=O)[nH]c(=S)[nH]1` [6-propyl-2-thiouracil], the “Increase of testis weight compared to controls” value (shortened to “Increase of testis weight”) (male rats [6]; at 90 days) is given as 40%, the “Increase of testis weight” value (male rats [6]; at 135 days) is given as 60% and the “Increase of testis weight” value (male rats [6]; at 160 days) is given as 80%. The “Decline of average Leydig cell volume” value (suckling rat pups; at 180 days) was “about 20%”, the “Increase in number of Leydig cells per testis” value (suckling rat pups; at 180 days) was 69% and the “Decline in number of hCG-binding sites (LH receptors)” value (suckling rat pups) was 50%. For the same compound, the “Reduction of LH-stimulated testosterone production in Leydig cells” value (suckling rat pups) was 55%, the “Increase in testis weight” value ([7]; 8 to 14 or 10 to 16 weeks of age) was “about 35%” and the Testis weight ([7]; 8 to 14 weeks of age, control 20.0 g) was 27.7 g. For the same compound, the Testis weight ([7]; 10 to 16 weeks of age, control 20.0 g) was 27.7 g, the “Increase in mean testis weight at 28 weeks” value ([7]; fed from 6 to 12 weeks of age) was 96% and the “Mean testis weight at 28 weeks” value ([7]; fed from 6 to 12 weeks of age, control 20.0 g) was 39.3 g.
For `O=C(O)CCCC[C@@H]1SC[C@@H]2NC(=O)N[C@@H]21` [biotin], the Cases cured (dogs) is listed as 60%.
In the case of `O=C([O-])c1ccccc1O.[Na+]` [sodium salicylate], the “Rise of free dialyzable fraction of T4 in vitro” value [8] is listed as 125%, the “Decrease in T3” value (male rats [9]) is listed as 60% and the “Decrease in plasma T4 level” value (male rats [9]) is listed as 20%. The “Increase in reverse T3” value (male rats [9]) was 20%.
In the case of `I` [iodide], the “Protection from radioactive iodide” value (humans) is listed as “over 97%”, the Rate of apoptosis ([10]; 2 and 20 microM iodide) is listed as 4-6% and the “Inhibitory effect of iodide on thyroid follicle proliferation” value [11] is listed as 84±2%.
For `CCCCC/C=C\C/C=C\C/C=C\CC(I)C1CCCC(=O)O1` (stereo not drawn) [delta-iodolactone], the “Dose lower than iodide for comparable apoptosis” value ([10]; 0.05 to 0.5 microM delta-iodolactone) is listed as “about 40 fold”.
